Data reported in patent publication US6413508B1, “Green leaf volatiles as synergists for insect pheromones” (The United States of America as represented by the …, priority 1988, dated 2002).

Assays:
[1] = Gas chromatographic analyses of the aldehyde released in the field; settings: field conditions in which it was released
[2] = system: Single Olfactory Cells Responsive to Volatiles Emanating from a Crushed Cotton Square; test: Single-cell electrophysiology: action potentials from single olfactory cells; type: cell-based, Anthonomus grandis; settings: volatiles emanating from 1 μg of odorant; cell responsive to crushed cotton square
Excerpt: Single-cell recording techniques are described in detail elswhere [Dickens, Mitt. Schweiz. Entomol. Ges. 52: 203 (1979); Dickens et al., J. Chem. Ecol. 10: 583 (1984)]. In brief, microelectrodes used for recordings were constructed from 50.8 μm diameter tungsten wire electrolytically sharpened to a tip of 1-2 μm. The recording electrode was positioned under optical control (150-200 X) with a Leitz high-power micromanipulator near either the base of one of the three sensory bands encircling the club, or the base of an individual sensillum just distal to each sensory band region. The ground electrode was inserted in either the rostrum or distal end of the scape. Action potentials were amplified and conditioned by a Grass P-15 preamplifier and Tektronix 5A22N amplifier prior to visualization on a Tektronix 5223 digitizing oscilloscope. The signal then passed through a Teac R51-D data recorder for recording on cassette tapes prior to visualization on a Tektronix 5111 analog oscilloscope. Data were photographed from the analog oscilloscope with a Tektronix C-5C oscilloscope camera. Trains of action potentials were counted visually.
Upon obtaining a single cell preparation, odorous stimuli were presented every 3 min. […] The first two stimuli tested were volatiles emanating from 1 μg of grandlure, followed by volatiles emanating from a crushed cotton square. These two stimuli served to determine whether the cell was activated by the attractive pheromone of the boll weevil and/or volatiles emanating from its food source.

female C. capitata = test: Wind tunnel assay with female Mediterranean fruit flies; type: in vivo, Ceratitis capitata; settings: laboratory flight tunnel
Description: Flies were assayed in a rectangular glass wind tunnel (90 cm×90 cm×280 cm; flow rate=20 cm/sec) using laboratory-reared 5- to 7-day-old female C. capitata. The odor from 100 male C. capitata (30-50% calling) was obtained, and split through “Teflon” tubing to a secondary container containing the green leaf odor [either 100 μL of a 0.05% mixture in paraffin oil of trans-2-hexen-1-ol, 1-hexanol, cis-3-hexen-1-ol, trans-2-hexenal, and hexanal at a ratio of 158:100:63:24:11 (=glv, green leaf volatiles); or 100 μL of a 10% solution in silicon oil of trans-2-hexenal alone]. The odors were released into the wind tunnel via “Teflon” tubing to […] yellow plastic spheres [McInnis, J. Econ. Entomol. (in press)] with multiple holes to allow odors to emanate. Fifty flies were released 200 cm downwind from the source spheres, and both the number of flies on the spheres at a given time, and total number of landings by the flies were recorded during a 30-min test period. The test with the green leaf volatile blend was replicated five times; the test with trans-2-hexenal was replicated six times.

Boll Weevils [3] = test: Competitive field test with released weevils, four trap array; type: in vivo, Anthonomus grandis; settings: 1.0 mg of the compound
Excerpt: The second series of experiments involved an array of four traps. […] The two treatments being tested simultaneously in this competitive arrangement were placed alternately in the traps, i.e., the two traps baited with the same treatment were located diagonally from each other. Odorants diluted in hexane were released from glass capillaries placed in small vials in a container in each trap. […] Traps were then immediately baited. In each test, traps were checked and insects were removed at 1530 hrs and 1700 hrs on the day of release, and before 0900 hrs the next day (the time at which the test was terminated) in order to remove those insects which might have responded prior to darkness on the day of release.

Scolytus multistriatus = test: Field test with bark beetles, 4-wk, Orono, Me.; type: in vivo; settings: for captures of bark beetles in traps when released with multilure, relative to the pheromone alone: 10 mg each; for Mean % Trap Capture: hexanal 10 mg, 1-hexanol 10 mg, multilure, alone or combined, 4-wk test period
Description: Mean % trap captures were calculated from competitive field tests during a 4-wk test period on campus of the University of Maine, Orono, Me. Total number of S. multistriatus captured was 423. Multilure consisted of α-multistriatin, methyl heptanol, and cubebene as obtained commercially from Dewill Corp., Elmhurst, Ill. Both 1-hexanol and hexanal were released from cigarette filters after dilution in the […] described [McKibben, supra]. Mean weekly trap captures were compared by Duncan's multiple range test [Duncan, Biometrics 11: 1-42 (1955)].

Boll Weevils [4] = test: Competitive field test with released weevils, triangular trap array; type: in vivo, Anthonomus grandis; settings: for Mean Trap Capture: three replicates; for activity alone in competition with the other treatments: triangular array, 100 mg alone
Description: Two series of field tests were performed involving released boll weevils, in which grandlure was placed in competition with grandlure + the synergist. In the first series of experiments, a triangular array of traps was used. One trap was placed at each corner of a 20 m equilateral triangle (total of three traps). The three treatments released in this triangular array of traps were: 1) grandlure 3 mg; 2) grandlure 3 mg+synergist 100 mg; and 3) synergist 100 mg. The three synergists tested in these experiments were: trans-2-hexen-1-ol, 1-hexanol, and cis-3-hexen-1-ol. Cigarette filters were used to release the experimental odorants. One hundred insets (50 males and 50 females) were released along a line 20 m from each side of the triangle (300 insects total) at ca. 1000 hrs prior to baiting of the traps at 1200 hrs. Traps were check and insects were removed at 1400 hrs, 1600 hrs, and 1800 hrs, the times at which the test was terminated.

[5] = grandlure 3 mg vs 1-hexanol 100 mg vs both
[6] = grandlure 3 mg vs cis-3-hexen-1-ol 100 mg vs both

| Compound | Response in impulses/initial 500 msec, Cell #1 [2] [impulses/initial 500 msec] | Response in impulses/initial 500 msec, Cell #2 [2] [impulses/initial 500 msec] | Response in impulses/initial 500 msec, Cell #3 [2] [impulses/initial 500 msec] | Response in impulses/initial 500 msec, Cell #4 [2] [impulses/initial 500 msec] | other results |
| --- | --- | --- | --- | --- | --- |
| CCC/C=C/C=O [trans-2-hexenal] | 27 | 24 | 1 | 38 | degradation under field conditions [1]: in part been degraded; response of female flies to male odor plus the green leaf odor relative to male odor alone (female C. capitata): enhanced response; synergism with grandlure (0.8 mg) in competition with grandlure (0.8 mg) alone (Boll Weevils [3]): no significant difference |
| CCCCCCO [1-hexanol] | 11 | 30 | 42 |  | synergism with grandlure (0.8 mg) in competition with grandlure (0.8 mg) alone (Boll Weevils [3]): effective synergists; captures of bark beetles in traps when released with multilure, relative to the pheromone alone (Scolytus multistriatus): increased; Mean % Trap Capture (Scolytus multistriatus): 0a %; % Total (Boll Weevils [4]; [5]): 0%; Mean Trap Capture (Boll Weevils [4]; [5]): 0 A; activity alone in competition with the other treatments (Boll Weevils [4]): relatively inactive |
| CC1=CC[C@H]2C[C@@H]1C2(C)C [(-)-α-pinene, (−)-α-pinene] | 4 | 0 | 1 | 7 |  |
| C=CC(C)(O)CCC=C(C)C (stereo not shown) [linalool] | 3 | 2 | 1 | 11 |  |
| CCCCCCCCC=O [nonanal] | 2 | 0 | 0 | 4 |  |
| CC/C=C\CCO [cis-3-hexen-1-ol] |  |  |  |  | synergism with grandlure (0.8 mg) in competition with grandlure (0.8 mg) alone (Boll Weevils [3]): effective synergists; % Total (Boll Weevils [4]; [6]): 0%; Mean Trap Capture (Boll Weevils [4]; [6]): 0 B; activity alone in competition with the other treatments (Boll Weevils [4]): relatively inactive |
| CCCCCCC=O [heptanal] | 1 | 0 | 0 | 16 |  |
| α-bisabolol | 3 | 12 | 3 | 2 |  |
| C=CC(=C)CCC=C(C)C [myrcene] | 2 | 1 | 1 | 3 |  |
| CCCCCC=O [hexanal] | 16 | 13 |  | 27 | captures of bark beetles in traps when released with multilure, relative to the pheromone alone (Scolytus multistriatus): increased; Mean % Trap Capture (Scolytus multistriatus): 0.3a % |
| CC(C)=CCC/C(C)=C/CO [geraniol] | 1 | 3 | 5 | 0 |  |
| (−)-limonene [(-)-limonene] | 0 | 0 | 2 | 1 |  |
| gossonerol | 3 |  |  | 12 |  |
| C=C1CC/C=C(\C)CC[C@@H]2[C@@H]1CC2(C)C [β-caryophyllene] | 2 | 2 | 0 | 1 |  |
| CC(C)=CCC[C@H](C)[C@@]1(O)CC=C(C)CC1 [β-bisabolol] | 3 | 3 | 5 | 2 |  |
| CC(C)=CCC/C(C)=C\CO [nerol] | 3 | 4 | 8 | 11 |  |
| CCC/C=C\CO [cis-2-hexen-1-ol] |  |  |  |  | synergism with grandlure (0.8 mg) in competition with grandlure (0.8 mg) alone (Boll Weevils [3]): no synergism |
| O=Cc1ccccc1 [benzaldehyde] | 3 | 0 | 1 | 0 |  |
